# Reference: ChEMBL document CHEMBL5038649, “Chemical Space Expansion of Flavonoids: Induction of Mitotic Inhibition by Replacing Ring B with a 10π-Electron System, Benzo[b]thiophene” (J Nat Prod, 2022)
# What was measured:
# Type in all cases: functional, cell-based
# MDA-MB-231 = assay: Antiproliferative activity against human MDA-MB-231 cells assessed as reduction in cell viability after 72 hrs by SRB assay; details: MDA-MB-231, 72 h
# [1] = Antiproliferative activity against human KB-VIN cells assessed as reduction in cell viability after 72 hrs by SRB assay; details: KBVIN
# MCF7 = assay: Antiproliferative activity against human MCF7 cells assessed as reduction in cell viability after 72 hrs by SRB assay; details: MCF7, 72 h
# A549 = assay: Antiproliferative activity against human A549 cells assessed as reduction in cell viability after 72 hrs by SRB assay; details: A549, 72 h
# KB = assay: Antiproliferative activity against human KB cells assessed as reduction in cell viability after 72 hrs by SRB assay
Compound,IC50 (MDA-MB-231) [µM],IC50 (MCF7) [µM],IC50 (A549) [µM],IC50 (KB) [µM],IC50 [1] [µM]
COc1ccc(/C=C/C(=O)c2csc3ccccc23)cc1,> 10,> 10,> 10,> 10,8.1
COc1c(OC(C)C)cc2occ(-c3ccccc3)c(=O)c2c1O,> 10,> 10,> 10,> 10,> 10
COc1cc(O)c(C(=O)/C=C/c2csc3ccccc23)c(OC)c1OC,6.9,7.7,5.3,6.7,4.9
O=C(/C=C/c1ccccc1)c1ccccc1 [CHALCONE],> 10,> 10,> 10,> 10,> 10
COc1cccc(/C=C/C(=O)c2csc3ccccc23)c1,6.2,7.5,5.5,5.7,5.4
O=C(/C=C/c1ccccc1)c1csc2ccccc12,6.7,> 10,9.1,6.3,5.8
COc1c(O)cc2occ(-c3csc4ccccc34)c(=O)c2c1O,> 10,> 10,> 10,> 10,> 10
O=C(/C=C/c1csc2ccccc12)c1cc(F)ccc1O,8.4,> 10,7.1,7.4,5.4
COc1c(OC(C)C)cc2oc(-n3cncn3)c(-c3csc4ccccc34)c(=O)c2c1OC(C)C,> 10,> 10,> 10,> 10,5
COc1ccc(O)c(/C=C/C(=O)c2csc3ccccc23)c1,5.4,5.9,4.7,5,4.4
COc1c(OC(C)C)cc2c(c1O)C(=O)/C(=C/c1csc3ccccc13)O2,> 10,> 10,> 10,> 10,> 10
COc1c(OC(C)C)cc2c(c1OC(C)C)C(=O)/C(=C/c1csc3ccccc13)O2,> 10,> 10,> 10,> 10,> 10
O=C(/C=C/c1cc2ccccc2s1)c1cc(Cl)cc(Cl)c1O,7.5,9.9,6.9,7.8,5.8

# Second part, led by results:
IC50 (MDA-MB-231) [µM],IC50 (MCF7) [µM],IC50 (A549) [µM],IC50 (KB) [µM],Compound,IC50 [1] [µM]
7.3,9.7,6.6,8.1,O=C(/C=C/c1ccc(Cl)cc1)c1csc2ccccc12,5.5
> 10,> 10,> 10,> 10,CC(C)Oc1ccc(/C=C/C(=O)c2csc3ccccc23)cc1,> 10
> 10,> 10,> 10,> 10,O=C(/C=C/c1cc2ccccc2s1)c1cc(Br)ccc1O,> 10
> 10,> 10,> 10,> 10,O=C1/C(=C/c2ccccc2)Oc2ccccc21 [(Z)-AURONE],> 10
> 10,> 10,> 10,> 10,COc1cc2occ(-c3csc4ccccc34)c(=O)c2cc1OC,> 10
> 10,> 10,> 10,> 10,COc1cc2occ(-c3csc4ccccc34)c(=O)c2c(OC)c1O,> 10
> 10,> 10,> 10,> 10,O=C(/C=C/c1ccccc1)c1c(O)ccc2ccccc12,> 10
6.2,6.9,4.8,5.1,O=C(/C=C/c1csc2ccccc12)c1cc2c(cc1O)OCO2,2.1
> 10,> 10,> 10,> 10,O=C(/C=C/c1cc2ccccc2s1)c1cc(Cl)ccc1O,> 10
